Measured values from patent US8206983B2, “In vitro methods for the induction and maintenance of plant cell lines as single suspension cells with intact cell walls” (Dow AgroSciences, LLC., priority 2006, dated 2012).

What was measured:
JTNT1 cells = test: Plasma membrane staining of single cells with FM4-64; assay type: cell-based, tobacco; conditions: 100 nM
Experimental: Plasmamembrane. JTNT1 cells were incubated with 5 μm FM4-64 (styryl dye) for 5 minutes and washed with fresh media. The culture was centrifuged at 3000 rpm, and fresh media was added. The cells were visualized on Zeiss ApoTome microscope.

[1] = tested on: JTNT1 tobacco cell suspension cultures; test: Single cell production, growth and viability of JTNT1 suspension with microtubule inhibitors in 24-well plates, glycerol medium; conditions: for cell growth and appearance: all concentrations tested (1, 3, 10 μM)
Source text: JTNT1 Tobacco Suspension Cultures. […] Furthermore, Suc stabilizes preformed microtubules, making an examination of the effects of MTIs on preformed microtubules unfeasible. In addition, sucrose increases solution viscosity substantially, and tubulin polymerization is altered at least in part by slowed dimer and polymer diffusion rates. Thus, it was important to have low or no sucrose in medium where the single cell production. Thus, a new JTNT1 line habituated in Glycerol was developed for this study.
Each of the 24 well contained 1 ml of JTNT1 suspension. The 24-well plates were kept on an Innova 4900 Multi Environmental Shaker with special clamps and harnesses to allow stacking of plates up to 6 plates high. The plates were rotated at a speed of 130 rpm and 25° C. in dark.
Single Cell Production. Each compound was dissolved in dimethyl sulfoxide (DMSO) to provide 0.5 Molar stock solutions. One ml of JTNT1 suspension (1 ml PCV/20 ml tobacco media) was added to each well of the 24 well plates. To each well an individual chemical was added to achieve the desired concentrations (at 1 μM, 3 μM, and 10 μM). The cultures were allowed to grow for 7 days on the Innova Shaker. Each day turbidity measurements was taken on each well using a SpectraMax M2^e by Molecular devices (set at 600 absorbance, with 5 readings taken per well). On day 7, cells were observed using the Leica 5000 inverted confocal microscope for formation of single cells and cell viability.

plant tubulin = conditions: 1 M Sucrose; cited from earlier work
JTNT1 single cells = test: Cytological characterization of JTNT1 single cells (nucleus, cell wall); assay type: cell-based, tobacco
Experimental: JTNT1 Tobacco single cell initiation and sample collection. JTNT1 Tobacco single cells were initiated in two different media, NT1B with 3% sucrose (NT1B-Suc) and NT1B with 3% glycerol (NT1B-Gly) in 3.5 day culture cycle. […] The flasks were closed with a foam stopper and cultured on a orbital shaker at 130 rpm in dark at 25-28° C. The cultures were sub cultured every 3.5 days up to a period of 14 days. Four samples (Suc/Gly grown cells and the control cultures in Suc/Gly media with 0.2% DMSO) of the cultures were harvested every 3.5 days by spinning the suspension at 3000 rpm for 5 minutes. The samples were immediately lyophilized to prevent any cell oxidation to minimize any deleterious effect on the samples introduced post harvest. Single cells were stained with Hoechst nuclear stain for an hour and observed under scopes for any nuclear anomaly up to two culture cycles.
Cell viability and Cell wall. Established JTNT1 single cells were used to stain with FUN1 (F-7030, Molecular Probes, Invitrogen Inc) cell stain which is used for viability test in yeast, and this contains two color fluorescent probes. The third one, Calcofluor White M2R which stains cell wall, was used to stain the cells. For JTNT1 single cells, […] of FUN1 stain is added and the culture was incubated at room temperature for 20 mins 1 mL fresh culture media was added to wash the excess stain and centrifuged at 3000 rpm; the supernantant was discarded. The cells were examined and imaged on Zeiss ApoTome microscope.
Nucleus. Single cells were stained with Hoechst nuclear stain for an hour and observed on Zeiss Apo Tome for any nuclear anomaly up to two culture cycles. Crystal violet stain was also used as a live nuclear stain for observing nuclear structure for ploidy characterization

CCC(C)(CC)c1cc(NC(=O)c2c(OC)cccc2OC)on1 [Isoxeben]
FM4-64 staining of single cells (JTNT1 cells): extensive vesicle on the surface

COP(=S)(NC(C)C)Oc1ccc(C)cc1[N+](=O)[O-] (stereo not drawn) [APM, Amiprophosmethyl]
concentration at which single cells were formed [1]: 1 to 10 µM
cell growth ([1]; 1 μM and 3 μM): grew well
effect at higher concentration ([1]; above 1-10 μM): remarkable reduction of growth and cell division inhibition
cell viability (Fluorescein diacetate and Propidium Iodine stains) ([1]; tobacco, 7 days): up to 70%
effect on plant microtubule length (plant tubulin): concentration-dependent decrease in plant microtubule length

COc1ccc([C@H]2CC=CC[C@@H]2[N+](=O)[O-])c(OC)c1OC (racemic) [trimethoxyphenylcyclohexene, (±)-4S,5R-4-nitro-5-(2,3,4-trimethoxyphenyl)-cyclohexene]
bleaching of cells [1]: mild bleaching
single cell formation ([1]; 1 μM, 3 μM, and 10 μM): promoted the formation of single cells
cell viability ([1]; across all levels (1 μM, 3 μM, 10 μM)): 80-90%
cell growth and appearance [1]: grew very well
nuclear organization of single cells (JTNT1 single cells; 1 uM, 3.5 d cultures): single nucleus
nuclear ploidy (JTNT1 single cells; 14 days of continuous treatments): low or no nuclear ploidy percentage

CSC(=O)c1c(C(F)F)nc(C(F)(F)F)c(C(=O)SC)c1CC(C)C [Dithiopyr]
single cell formation ([1]; 1 μM and 3 μM): single cells were formed
single cell formation ([1]; 10 μM): the concentration of the cells was low
cell growth and appearance [1]: healthy, growing and yellow in color
